Assay results: ChEMBL document CHEMBL1153172, “Oxo-bridged isomers of aza-trishomocubane sigma (sigma) receptor ligands: Synthesis, in vitro binding, and molecular modeling” (Bioorg Med Chem Lett, 2010)

Key:
[1] = biological target: Sigma non-opioid intracellular receptor 1 (Homo sapiens, UniProt Q99720); experiment: Binding affinity to sigma 1 receptor
[2] = Binding affinity to sigma 2 receptor
[3] = biological target: T1, Sodium-dependent dopamine transporter (Homo sapiens, UniProt Q01959); experiment: Binding affinity to DAT
T1 sequence (Q01959 whole entry): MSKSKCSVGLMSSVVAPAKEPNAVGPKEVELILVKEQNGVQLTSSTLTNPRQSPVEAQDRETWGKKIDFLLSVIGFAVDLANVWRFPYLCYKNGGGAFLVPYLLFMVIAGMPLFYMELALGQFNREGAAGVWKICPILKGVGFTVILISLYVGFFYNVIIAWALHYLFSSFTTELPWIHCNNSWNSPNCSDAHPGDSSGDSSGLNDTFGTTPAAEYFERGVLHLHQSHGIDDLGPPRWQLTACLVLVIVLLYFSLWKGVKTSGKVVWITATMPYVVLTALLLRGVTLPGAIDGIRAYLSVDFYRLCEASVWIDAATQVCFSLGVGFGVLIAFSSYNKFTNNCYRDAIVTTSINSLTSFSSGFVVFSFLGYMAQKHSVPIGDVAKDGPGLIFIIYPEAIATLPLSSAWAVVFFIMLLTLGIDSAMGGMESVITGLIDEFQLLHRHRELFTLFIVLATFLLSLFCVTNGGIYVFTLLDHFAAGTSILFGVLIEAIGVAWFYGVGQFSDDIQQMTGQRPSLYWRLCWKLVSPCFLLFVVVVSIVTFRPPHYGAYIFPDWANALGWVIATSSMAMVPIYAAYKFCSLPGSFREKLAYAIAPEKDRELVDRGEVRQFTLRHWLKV

[4] = Selectivity, ratio of Ki for sigma 1 to Ki for sigma 2
[5] = biological target: T2, Alpha-2C adrenergic receptor (Homo sapiens, UniProt P18825); experiment: (§1) Binding affinity to Alpha2C adrenoceptor receptor
T2 sequence (P18825 whole entry): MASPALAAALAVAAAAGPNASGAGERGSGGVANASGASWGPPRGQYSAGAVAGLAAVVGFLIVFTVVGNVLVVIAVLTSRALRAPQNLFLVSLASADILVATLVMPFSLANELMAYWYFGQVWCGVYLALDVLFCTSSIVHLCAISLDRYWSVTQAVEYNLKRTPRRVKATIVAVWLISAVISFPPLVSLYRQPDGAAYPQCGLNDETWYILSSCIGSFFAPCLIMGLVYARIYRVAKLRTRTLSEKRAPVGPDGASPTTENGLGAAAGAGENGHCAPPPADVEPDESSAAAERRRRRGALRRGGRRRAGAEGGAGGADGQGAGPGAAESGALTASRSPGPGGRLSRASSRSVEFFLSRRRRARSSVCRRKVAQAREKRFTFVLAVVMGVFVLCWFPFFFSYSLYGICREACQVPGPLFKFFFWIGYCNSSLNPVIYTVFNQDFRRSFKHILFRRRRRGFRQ

[6] = Inhibition of 5HT receptor at 10 uM
[7] = biological target: T3, Alpha-2C adrenergic receptor (Homo sapiens) (UniProt P18825); experiment: Inhibition of Alpha2C adrenoceptor receptor at 10 uM
T3 sequence (whole entry): T2 sequence (P18825 whole entry)

[8] = biological target: T1, Sodium-dependent dopamine transporter; experiment: Inhibition of DAT at 10 uM
[9] = biological target: 5-hydroxytryptamine receptor 1A (Homo sapiens) (UniProt P08908); experiment: Inhibition of 5HT1A receptor at 10 uM
[10] = biological target: 5-hydroxytryptamine receptor 1B (Homo sapiens) (UniProt P28222); experiment: Inhibition of 5HT1B receptor at 10 uM
[11] = biological target: 5-hydroxytryptamine receptor 1D (Homo sapiens) (UniProt P28221); experiment: Inhibition of 5HT1D receptor at 10 uM
[12] = biological target: 5-hydroxytryptamine receptor 1E (Homo sapiens) (UniProt P28566); experiment: Inhibition of 5HT1E receptor at 10 uM
[13] = biological target: 5-hydroxytryptamine receptor 2A (Homo sapiens) (UniProt P28223); experiment: Inhibition of 5HT2A receptor at 10 uM
[14] = biological target: 5-hydroxytryptamine receptor 2B (Homo sapiens) (UniProt P41595); experiment: Inhibition of 5HT2B receptor at 10 uM
[15] = biological target: 5-hydroxytryptamine receptor 2C (Homo sapiens) (UniProt P28335); experiment: Inhibition of 5HT2C receptor at 10 uM
[16] = biological target: 5-hydroxytryptamine receptor 3A (Homo sapiens) (UniProt P46098); experiment: Inhibition of 5HT3 receptor at 10 uM
[17] = biological target: 5-hydroxytryptamine receptor 5A (Homo sapiens) (UniProt P47898); experiment: Inhibition of 5HT5A receptor at 10 uM
Sequence of 5-hydroxytryptamine receptor 5A (Homo sapiens) (P47898 whole entry): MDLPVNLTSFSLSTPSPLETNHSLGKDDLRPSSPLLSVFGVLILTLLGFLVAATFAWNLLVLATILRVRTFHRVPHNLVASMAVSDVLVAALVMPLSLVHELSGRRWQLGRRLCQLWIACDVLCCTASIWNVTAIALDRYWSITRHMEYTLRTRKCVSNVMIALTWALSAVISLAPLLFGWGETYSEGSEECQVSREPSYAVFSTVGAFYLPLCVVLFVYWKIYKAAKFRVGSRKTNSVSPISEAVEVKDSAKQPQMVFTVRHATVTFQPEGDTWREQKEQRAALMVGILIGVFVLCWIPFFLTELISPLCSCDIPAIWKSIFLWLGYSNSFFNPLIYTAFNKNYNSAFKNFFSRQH

[18] = biological target: 5-hydroxytryptamine receptor 6 (Homo sapiens) (UniProt P50406); experiment: Inhibition of 5HT6 receptor at 10 uM
Sequence of 5-hydroxytryptamine receptor 6 (Homo sapiens) (P50406 whole entry): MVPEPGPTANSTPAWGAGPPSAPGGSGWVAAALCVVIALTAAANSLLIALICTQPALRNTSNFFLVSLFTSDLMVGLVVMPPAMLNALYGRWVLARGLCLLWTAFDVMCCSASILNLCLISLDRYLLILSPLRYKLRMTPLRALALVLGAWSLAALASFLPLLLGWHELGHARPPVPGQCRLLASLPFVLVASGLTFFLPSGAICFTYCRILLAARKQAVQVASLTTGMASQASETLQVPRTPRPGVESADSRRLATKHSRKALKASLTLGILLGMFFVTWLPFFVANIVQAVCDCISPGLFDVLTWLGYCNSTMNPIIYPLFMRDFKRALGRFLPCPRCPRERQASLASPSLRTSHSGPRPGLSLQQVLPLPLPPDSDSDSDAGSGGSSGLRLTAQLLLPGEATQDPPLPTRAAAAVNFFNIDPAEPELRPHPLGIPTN

[19] = biological target: 5-hydroxytryptamine receptor 7 (Homo sapiens) (UniProt P34969); experiment: Inhibition of 5HT7 receptor at 10 uM
Sequence of 5-hydroxytryptamine receptor 7 (Homo sapiens) (P34969 whole entry): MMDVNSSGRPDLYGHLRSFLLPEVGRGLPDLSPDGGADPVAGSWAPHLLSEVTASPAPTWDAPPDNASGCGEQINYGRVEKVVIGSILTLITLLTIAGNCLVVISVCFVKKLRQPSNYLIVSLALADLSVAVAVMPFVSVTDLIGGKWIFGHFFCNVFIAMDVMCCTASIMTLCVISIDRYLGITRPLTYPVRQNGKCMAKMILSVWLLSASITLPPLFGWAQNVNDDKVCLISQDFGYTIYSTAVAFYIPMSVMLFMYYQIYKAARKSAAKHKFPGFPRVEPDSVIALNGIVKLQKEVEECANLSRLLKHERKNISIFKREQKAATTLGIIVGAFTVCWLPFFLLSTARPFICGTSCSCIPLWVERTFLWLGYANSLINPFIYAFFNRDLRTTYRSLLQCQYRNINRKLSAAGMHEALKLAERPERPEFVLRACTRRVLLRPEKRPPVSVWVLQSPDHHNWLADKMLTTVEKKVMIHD

[20] = biological target: Alpha-1A adrenergic receptor (Homo sapiens) (UniProt P35348); experiment: Inhibition of Alpha1A adrenoceptor receptor at 10 uM
[21] = biological target: Alpha-1B adrenergic receptor (Homo sapiens) (UniProt P35368); experiment: Inhibition of Alpha1B adrenoceptor receptor at 10 uM
[22] = biological target: Alpha-2A adrenergic receptor (Homo sapiens) (UniProt P08913); experiment: Inhibition of Alpha2A adrenoceptor receptor at 10 uM
Sequence of Alpha-2A adrenergic receptor (Homo sapiens) (P08913 whole entry): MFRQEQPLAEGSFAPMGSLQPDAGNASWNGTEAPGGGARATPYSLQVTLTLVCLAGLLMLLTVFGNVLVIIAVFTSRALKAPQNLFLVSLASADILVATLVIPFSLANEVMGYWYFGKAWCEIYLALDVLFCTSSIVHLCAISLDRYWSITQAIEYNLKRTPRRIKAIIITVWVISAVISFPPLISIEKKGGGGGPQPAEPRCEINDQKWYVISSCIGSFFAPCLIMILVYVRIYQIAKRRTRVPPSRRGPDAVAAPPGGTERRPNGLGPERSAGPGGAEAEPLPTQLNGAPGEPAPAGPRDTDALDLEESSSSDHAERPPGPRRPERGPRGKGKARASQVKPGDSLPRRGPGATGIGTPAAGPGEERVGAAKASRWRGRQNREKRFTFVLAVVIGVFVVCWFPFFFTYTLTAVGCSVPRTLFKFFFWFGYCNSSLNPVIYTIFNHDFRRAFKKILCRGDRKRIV

[23] = biological target: Alpha-2B adrenergic receptor (Homo sapiens) (UniProt P18089); experiment: Inhibition of Alpha2B adrenoceptor receptor at 10 uM
Sequence of Alpha-2B adrenergic receptor (Homo sapiens) (P18089 whole entry): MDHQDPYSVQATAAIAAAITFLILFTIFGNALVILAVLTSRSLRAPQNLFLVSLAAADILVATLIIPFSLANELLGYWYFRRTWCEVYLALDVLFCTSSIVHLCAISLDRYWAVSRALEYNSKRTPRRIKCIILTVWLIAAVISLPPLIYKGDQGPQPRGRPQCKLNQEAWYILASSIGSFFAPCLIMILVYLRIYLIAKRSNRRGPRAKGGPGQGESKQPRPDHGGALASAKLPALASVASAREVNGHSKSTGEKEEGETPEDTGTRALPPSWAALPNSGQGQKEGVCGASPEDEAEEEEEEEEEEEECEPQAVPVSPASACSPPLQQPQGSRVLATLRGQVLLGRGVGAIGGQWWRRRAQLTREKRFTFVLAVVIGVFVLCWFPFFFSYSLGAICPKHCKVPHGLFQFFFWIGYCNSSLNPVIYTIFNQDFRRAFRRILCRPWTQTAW

[24] = biological target: Beta-1 adrenergic receptor (Homo sapiens) (UniProt P08588); experiment: Inhibition of beta-1 adrenoceptor receptor at 10 uM
[25] = biological target: Beta-2 adrenergic receptor (Homo sapiens) (UniProt P07550); experiment: Inhibition of beta2 adrenoceptor receptor at 10 uM
Sequence of Beta-2 adrenergic receptor (Homo sapiens) (P07550 whole entry, looked up): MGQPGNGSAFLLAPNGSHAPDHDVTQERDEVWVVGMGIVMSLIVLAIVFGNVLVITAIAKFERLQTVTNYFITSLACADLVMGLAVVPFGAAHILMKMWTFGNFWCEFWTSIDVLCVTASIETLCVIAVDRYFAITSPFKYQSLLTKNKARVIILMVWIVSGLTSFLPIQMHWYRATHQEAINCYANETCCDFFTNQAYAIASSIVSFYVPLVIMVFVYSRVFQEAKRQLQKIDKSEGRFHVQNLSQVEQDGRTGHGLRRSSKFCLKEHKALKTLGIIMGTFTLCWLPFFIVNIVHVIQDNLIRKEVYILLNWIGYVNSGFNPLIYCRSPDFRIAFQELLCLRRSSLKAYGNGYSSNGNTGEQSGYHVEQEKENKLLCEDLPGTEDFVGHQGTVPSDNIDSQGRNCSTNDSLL

[26] = Inhibition of Ca2+ channel at 10 uM
[27] = biological target: Cannabinoid receptor 1 (Homo sapiens) (UniProt P21554); experiment: Inhibition of CB1 receptor at 10 uM
[28] = biological target: Cannabinoid receptor 2 (Homo sapiens) (UniProt P34972); experiment: Inhibition of CB2 receptor at 10 uM
[29] = biological target: D(1A) dopamine receptor (Homo sapiens) (UniProt P21728); experiment: Inhibition of D1 receptor at 10 uM
[30] = biological target: D(2) dopamine receptor (Homo sapiens) (UniProt P14416); experiment: Inhibition of D2 receptor at 10 uM
[31] = biological target: Delta-type opioid receptor (Homo sapiens) (UniProt P41143); experiment: Inhibition of Delta opioid receptor at 10 uM
[32] = biological target: Histamine H1 receptor (Homo sapiens) (UniProt P35367); experiment: Inhibition of histamine H1 receptor at 10 uM
Sequence of Histamine H1 receptor (Homo sapiens) (P35367 whole entry): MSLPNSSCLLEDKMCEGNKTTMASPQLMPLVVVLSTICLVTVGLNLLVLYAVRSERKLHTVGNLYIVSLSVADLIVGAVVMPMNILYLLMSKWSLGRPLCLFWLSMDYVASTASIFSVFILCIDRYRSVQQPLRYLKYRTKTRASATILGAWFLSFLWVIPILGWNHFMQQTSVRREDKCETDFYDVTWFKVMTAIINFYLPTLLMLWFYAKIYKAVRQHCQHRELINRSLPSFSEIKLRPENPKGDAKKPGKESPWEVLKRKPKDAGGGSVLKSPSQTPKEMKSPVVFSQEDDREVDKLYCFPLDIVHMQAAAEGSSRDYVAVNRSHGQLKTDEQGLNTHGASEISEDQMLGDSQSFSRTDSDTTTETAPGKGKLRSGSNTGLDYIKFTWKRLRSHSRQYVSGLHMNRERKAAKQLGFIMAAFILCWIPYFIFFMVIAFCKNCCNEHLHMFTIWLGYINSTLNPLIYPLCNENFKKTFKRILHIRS

[33] = biological target: Histamine H2 receptor (Homo sapiens) (UniProt P25021); experiment: Inhibition of histamine H2 receptor at 10 uM
[34] = biological target: Histamine H3 receptor (Homo sapiens) (UniProt Q9Y5N1); experiment: Inhibition of histamine H3 receptor at 10 uM
[35] = biological target: Histamine H4 receptor (Homo sapiens) (UniProt Q9H3N8); experiment: Inhibition of histamine H4 receptor at 10 uM
Sequence of Histamine H4 receptor (Homo sapiens) (Q9H3N8 whole entry): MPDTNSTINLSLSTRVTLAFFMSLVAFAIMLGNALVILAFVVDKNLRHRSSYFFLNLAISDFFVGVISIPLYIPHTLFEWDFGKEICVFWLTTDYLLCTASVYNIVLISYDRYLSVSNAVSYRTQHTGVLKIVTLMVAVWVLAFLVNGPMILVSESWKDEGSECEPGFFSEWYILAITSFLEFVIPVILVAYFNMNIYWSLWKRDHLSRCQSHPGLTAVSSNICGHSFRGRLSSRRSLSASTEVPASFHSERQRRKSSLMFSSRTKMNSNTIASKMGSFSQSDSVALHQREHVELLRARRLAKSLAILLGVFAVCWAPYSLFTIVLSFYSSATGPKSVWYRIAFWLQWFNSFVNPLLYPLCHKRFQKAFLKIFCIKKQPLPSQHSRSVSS

[36] = biological target: Kappa-type opioid receptor (Homo sapiens) (UniProt P41145); experiment: Inhibition of Kappa opioid receptor at 10 uM
[37] = biological target: Mu-type opioid receptor (Homo sapiens) (UniProt P35372); experiment: Inhibition of mu opioid receptor at 10 uM
Sequence of Mu-type opioid receptor (Homo sapiens) (P35372 whole entry): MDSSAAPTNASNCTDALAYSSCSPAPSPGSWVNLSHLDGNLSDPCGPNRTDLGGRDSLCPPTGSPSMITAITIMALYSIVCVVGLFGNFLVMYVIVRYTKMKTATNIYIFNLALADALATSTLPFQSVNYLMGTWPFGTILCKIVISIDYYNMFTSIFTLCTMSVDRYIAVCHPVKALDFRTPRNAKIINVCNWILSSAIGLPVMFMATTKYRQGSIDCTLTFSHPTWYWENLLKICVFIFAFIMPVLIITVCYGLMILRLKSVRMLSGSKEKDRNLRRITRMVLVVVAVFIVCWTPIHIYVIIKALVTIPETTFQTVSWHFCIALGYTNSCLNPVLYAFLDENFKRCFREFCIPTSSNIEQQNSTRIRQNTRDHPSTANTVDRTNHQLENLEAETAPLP

[38] = biological target: T4, Sodium-dependent noradrenaline transporter (Homo sapiens, UniProt P23975); experiment: Inhibition of NET at 10 uM
[39] = Inhibition of phencyclidine binding site of NMDA receptor at 10 uM
[40] = biological target: 5-hydroxytryptamine receptor 1A (Homo sapiens, UniProt P08908); experiment: Binding affinity to 5HT1A receptor
[41] = biological target: 5-hydroxytryptamine receptor 4 (Homo sapiens) (UniProt Q13639); experiment: Inhibition of 5HT4 receptor at 10 uM
[42] = biological target: T2, Alpha-2C adrenergic receptor; experiment: as §1; remark: listed apart in the source
[43] = biological target: T4, Sodium-dependent noradrenaline transporter; experiment: Binding affinity to NET

Sequence of Sigma non-opioid intracellular receptor 1 (Q99720 whole entry): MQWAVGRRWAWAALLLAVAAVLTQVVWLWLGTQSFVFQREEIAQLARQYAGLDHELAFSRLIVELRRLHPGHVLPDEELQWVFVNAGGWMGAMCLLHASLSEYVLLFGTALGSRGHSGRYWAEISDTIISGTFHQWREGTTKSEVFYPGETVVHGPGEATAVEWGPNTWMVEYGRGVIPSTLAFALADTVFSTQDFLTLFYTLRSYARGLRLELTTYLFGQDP

For `OC12C3C4CC5C6C4C1C6C(C53)N2Cc1cccc(F)c1` (stereo not drawn), the Ki [1] was 153 nM, the Ki [2] was 31 nM and the Ki [3] was > 10000 nM. For the same compound, the Ratio [4] was 4.94, the Ki [5] was > 10000 nM and the inhibition [6] was < 50%. For the same compound, the inhibition [7] was < 50% and the inhibition [8] was < 50%.

In the case of `Fc1cccc(CNC23OC4C5C6CC(C7C6C4C72)C53)c1` (stereo not drawn), the Ki [1] is reported as 2280 nM, the Ki [2] is reported as 1640 nM and the Ki [3] is reported as > 10000 nM. For the same compound, the Ratio [4] was 1.39, the inhibition [9] was < 50% and the inhibition [10] was < 50%. For the same compound, the inhibition [11] was < 50%, the inhibition [12] was < 50% and the inhibition [13] was < 50%. For the same compound, the inhibition [14] was < 50%, the inhibition [15] was < 50% and the inhibition [16] was < 50%. The inhibition [17] was < 50%, the inhibition [18] was < 50% and the inhibition [19] was < 50%. For the same compound, the inhibition [6] was < 50%, the inhibition [20] was < 50% and the inhibition [21] was < 50%. The inhibition [22] was < 50%, the inhibition [23] was < 50% and the inhibition [7] was < 50%. For the same compound, the inhibition [24] was < 50%, the inhibition [25] was < 50% and the inhibition [26] was < 50%. The inhibition [27] was < 50%, the inhibition [28] was < 50% and the inhibition [29] was < 50%. For the same compound, the inhibition [30] was < 50%, the inhibition [8] was < 50% and the inhibition [31] was < 50%. The inhibition [32] was < 50%, the inhibition [33] was < 50% and the inhibition [34] was < 50%. The inhibition [35] was < 50%, the inhibition [36] was < 50% and the inhibition [37] was < 50%. The inhibition [38] was < 50% and the inhibition [39] was < 50%.

With `OC12C3C4CC5C6C4C1C6C(C53)N2CCc1cccc(F)c1` (stereo not drawn) the Ki [1] was 12 nM, the Ki [2] was 48 nM and the Ki [3] was > 10000 nM. The Ratio [4] was 0.25, the Ki [5] was > 10000 nM and the inhibition [6] was < 50%. For the same compound, the inhibition [7] was < 50% and the inhibition [8] was < 50%.

`Fc1cccc(CCNC23OC4C5C6CC(C7C6C4C72)C53)c1` (stereo not drawn) showed a Ki [1] of 149 nM, a Ki [2] of 363 nM and a Ki [3] of 137 nM. The Ratio [4] was 0.41, the Ki [5] was 20 nM and the Ki [40] was > 10000 nM. The inhibition [10] was < 50%, the inhibition [11] was < 50% and the inhibition [12] was < 50%. The inhibition [13] was < 50%, the inhibition [14] was < 50% and the inhibition [15] was < 50%. The inhibition [16] was < 50%, the inhibition [41] was < 50% and the inhibition [17] was < 50%. The inhibition [18] was < 50%, the inhibition [19] was < 50% and the inhibition [6] was < 50%. The inhibition [20] was < 50%, the inhibition [21] was < 50% and the inhibition [22] was < 50%. The inhibition [23] was < 50%, the Ki [42] was 20 nM and the inhibition [24] was < 50%. For the same compound, the inhibition [25] was < 50%, the inhibition [26] was < 50% and the inhibition [27] was < 50%. The inhibition [28] was < 50%, the inhibition [29] was < 50% and the inhibition [30] was < 50%. For the same compound, the inhibition [31] was < 50%, the inhibition [32] was < 50% and the inhibition [33] was < 50%. The inhibition [34] was < 50%, the inhibition [35] was < 50% and the inhibition [36] was < 50%. The inhibition [37] was < 50%, the Ki [43] was > 10000 nM and the inhibition [39] was < 50%.
